Data: paper PMC3538380 (Stem cells (Dayton, Ohio), 2013)

Tests used:
[1] = molecular target: purified GAPDH enzyme from rabbit muscle (Oryctolagus cuniculus, UniProt P46406); test: GAPDH enzymatic assay, NADH fluorescence; format: biochemical
[2] = molecular target: GAPDH in GSC11 cells (Homo sapiens, UniProt P04406); test: GAPDH activity in lysate of treated cells, NADH fluorescence; format: cell-based
Sequence of GAPDH in GSC11 cells (P04406 2-335): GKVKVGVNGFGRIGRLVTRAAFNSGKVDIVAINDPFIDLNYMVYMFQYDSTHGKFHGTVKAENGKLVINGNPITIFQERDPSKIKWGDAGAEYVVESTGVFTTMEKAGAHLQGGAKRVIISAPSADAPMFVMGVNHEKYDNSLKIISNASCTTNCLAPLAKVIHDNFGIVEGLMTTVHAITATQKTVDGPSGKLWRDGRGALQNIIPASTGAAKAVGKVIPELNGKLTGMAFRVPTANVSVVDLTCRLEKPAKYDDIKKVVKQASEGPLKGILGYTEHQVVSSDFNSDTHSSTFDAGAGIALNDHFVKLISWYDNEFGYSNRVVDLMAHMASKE

Sequence of purified GAPDH enzyme from rabbit muscle (P46406 whole entry): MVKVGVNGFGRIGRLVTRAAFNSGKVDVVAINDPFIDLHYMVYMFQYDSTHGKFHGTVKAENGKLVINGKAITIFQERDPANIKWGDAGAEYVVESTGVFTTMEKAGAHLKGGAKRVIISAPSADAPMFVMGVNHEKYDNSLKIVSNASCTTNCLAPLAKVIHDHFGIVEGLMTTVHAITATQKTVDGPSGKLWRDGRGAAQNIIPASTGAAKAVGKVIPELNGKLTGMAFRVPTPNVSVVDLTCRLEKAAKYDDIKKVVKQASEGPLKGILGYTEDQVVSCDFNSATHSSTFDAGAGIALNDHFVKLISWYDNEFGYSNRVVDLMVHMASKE

SMILES | IC50 [1] | inhibition at 10 µM ([2]; read-out: % inhibition at 10 μM) | inhibition at 200 µM ([2]; read-out: % inhibition at 200 μM)
CCCOC(=O)C(=O)CBr [3-BrOP, 3-bromo-2-oxopropionate-1-propyl ester] | ~10 µM | ~60% | –
O=NN(CCCl)C(=O)NCCCl [BCNU] | ~200 µM | – | ~60%
